Article PMC6717735, “Therapeutic Effect of pHLIP-mediated CEACAM6 Gene Silencing in Lung Adenocarcinoma” (Scientific Reports, 2019)

Tests used:
A549 tumours [1] = experiment: Ki-67 immunostaining of xenograft tumours (proliferation); assay type: in vivo, BALB/c nude mice; settings: n = 5 tumours/group
Procedure: Mice were killed by carbon dioxide asphyxiation. Staining was performed in formalin-fixed, paraffin-embedded tumour sections (4-μm thickness). Fully automated immunostaining was achieved using a BenchMark XT autostainer (Ventana Medical Systems Inc., Tucson, AZ, USA). The following antibodies were used: monoclonal mouse anti-human CEACAM6 (9A6, 1:4,000; Santa Cruz Biotechnology Inc.), anti-CC3 (1:100, BioCare Medical, Pacheco, CA, USA), and anti-Ki-67 (1:100, VP-K452; Vector Laboratory, Burlington, Canada). The number of positive cells per tumour area was quantified.

A549 tumours [2] = experiment: A549 xenograft tumour growth; assay type: in vivo, BALB/c nude mice; settings: compared with vehicle-treated mice; for reduction in tumour growth: n = 5
Procedure: We first assessed the knockdown efficacy of delivered […]6 in vivo. For in vivo analysis, BALB/c nude mice were subcutaneously injected with 1.2 × 10^7 A549 cells. Two weeks after tumour initiation, […]6 was injected into the mice via the tail vein with saline used as a negative control. To determine the optimal amount of […]6 for injection, two groups of mice (n = 5 mice/group) were injected with different doses (2 mg/kg and 4 mg/kg) twice per week for 3 weeks. Because cisplatin is the backbone of lung cancer treatment, cisplatin-treated mice served as the positive control. […] After 3 weeks of treatment, all mice were sacrificed. Next, we assessed the antitumour effects of concurrent chemotherapy and CEACAM6 targeting. […] According to the in vivo results, a dose of 2 mg/kg […]6 was selected for combination treatment. […] Tumour volume was measured every 2-3 days. […] None of the mice included in the therapeutic experiments experienced overt body weight loss or organ damage over the treatment period (Supplementary Fig. 5a,b). All animal work was performed in accordance with a protocol approved by the Institutional Animal Care and Use Committee of the Korea Research Institute of Bioscience and Biotechnology. A549 cells were subcutaneously injected into the right flanks of 5-week-old BALB/c athymic nude mice (n = 5 mice/group; 1.2 × 10^7 cells/mouse). Tumour growth was determined by measuring the length (L), width (W), and height (H) with callipers and using the formula V = (L × W × H) × 0.5.

N.N.[Cl][Pt][Cl] [cisplatin]
cell proliferation in tumours (Ki-67 staining) (A549 tumours [1]; combination study, after 3 weeks of systemic therapy): 18.4% | proliferation level (Ki-67 staining) (A549 tumours [1]; single-agent study, tumours harvested after 3 weeks): 11.2% | reduction in tumour growth (A549 tumours [2]; 2 mg/kg intraperitoneally 3 times/week for 3 weeks): 46.7% | reduction in tumour growth (A549 tumours [2]; 2 mg/kg intraperitoneally twice/week for 3 weeks): 35.0% | reduction in tumour volume (A549 tumours [2]; combination study: pHLIP-siCEACAM6 2 mg/kg via tail vein, cisplatin intraperitoneally, twice per week for 3 weeks, n = 5 mice/group): 29.9%
